Reference: patent publication US20250313546A1, “NUCLEIC ACID BINDERS” (UNIVERSITY OF STRATHCLYDE, priority 2022, published 2025)
Values after ≈ are worked out from the molar mass of the structure shown.

Assays:
[1] = tested on: Staphylococcus aureus (ATCC 43300); assay: Antibacterial MIC, broth microdilution (CLSI); type: cell-based; settings: for MIC80: Staphylococcus aureus, ATCC43300, read-out: MIC80 S. aureus; for S. aureus Selectivity Indices, Group: SI, IC50 (μM)/MIC80 (μM), HEK293 cytotoxicity, Alkyl Amidines and NH Pyrroles
Aspergillus fumigatus = assay: Expanded set of filamentous fungi, MIC broth microdilution (CLSI); type: cell-based
Rhizopus arrhizus = assay: as above; type: cell-based
Blastomyces dermatitidis = assay: as above; type: cell-based
[2] = tested on: A. fumigatus A1160 (MFIG001); settings: Aspergillus fumigatus, read-out: MIC99 A. fumigatus A1160
Method: The Minimum Inhibitory Concentration (MIC, at 99% inhibition) of the compounds was determined using the broth microdilution method as recommended by EUCAST (EUCAST Definitive Document E.DEF 9.3.2, Method for the determination of broth dilution minimum inhibitory concentrations of antifungal agents for conidia forming moulds and EUCAST Definitive Document E.DEF 7.3.2 Method for the determination of broth dilution minimum inhibitory concentrations of antifungal agents for yeasts).

Fusarium solani = assay: Expanded set of filamentous fungi, MIC broth microdilution (CLSI); type: cell-based; settings: MIC at 50% inhibition; for MIC50: Fusarium solani, isolate F4; for MIC50 Fusarium solani: isolate DI19-284
[3] = tested on: SARS-CoV-2 (hCoV-19/Australia/VIC01/2020); assay: SARS-CoV-2 microplaque inhibition assay in Vero-E6 cells; type: cell-based
[4] = In vivo pharmacokinetics mouse model (distribution and tolerability); set-up: species or system male CD-1 mice
Method: The procedure used for in vivo pharmacokinetics experiments is described below.
1 mL of 2 mg/mL stock solution was prepared by adding 500 μL of DMSO to 2 mg of compound and vortexed well until the compound had fully dissolved. 500 μL of Saline for Injection (SFI, warmed to 37° C.) was added dropwise, under vortexing.
Working Solutions Immediately prior to dosing, the 2 mg/mL stock solution was diluted 1:5 to produce 0.4 mg/mL dosing solution. 2 mL of 0.4 mg/mL solution was prepared by adding 400 μL of […] stock solution to 1600 μL diluent (10% DMSO, 90% SFI).
The dosing solution was administered to 7 male CD-1 mice, at 5 mL/kg via intravenous (IV) injection (e.g. 30 g mouse with 150 μL). 3 mice were grouped for the blood sampling study and 4 mice were grouped for the tissue sampling study.
At each time point (0.5, 2, 4, 8 hours), 20 μL blood samples were collected from mice by tail prick into 20 μL EDTA blood collection capillary tubes on wet ice. 20 μL blood samples were added directly to the appropriate well of a 96 deep well plate and mixed with 20 μL of distilled water and the samples stored at −80° C. prior to bioanalysis.
At each time point (0.25 and 1 hour), the lung, both kidneys and the liver (left lateral lobe) were removed from culled mice (two per time point) and individually placed in pre-weighed bead beater tubes, which were then weighed to determine tissue weight. 4× weight/volume sterile water was added to the tissue. Tissues were homogenized in a Precellys bead beater then snap frozen at […] until bioanalysis.
Initial stock of Ia10 was made to 1 mg/mL in DMSO. Calibration and quality controls were made by spiking 1 mg/mL DMSO stock into desired matrix and serial dilution in matrix to desired concentration. Calibration range=1 ng/mL-5000 ng/mL. All samples were crashed out in 5× volume of Acetonitrile. Samples were centrifuged and supernatant diluted 1:3 in water to be analysed on LCMS.
Compound Ia10 has been evaluated in an in vivo pharmacokinetics mouse model in order to investigate compound distribution and tolerability.

[5] = isolate AF293, MIC at 50% inhibition
[6] = isolate DI15-106, MIC at 50% inhibition
[7] = isolate DI15-116, MIC at 50% inhibition
[8] = isolate DI19-187, MIC at 50% inhibition
[9] = isolate DI19-230, MIC at 50% inhibition
[10] = isolate DI19-231, MIC at 50% inhibition
[11] = isolate DI19-232, MIC at 50% inhibition
[12] = isolate DI19-233, MIC at 50% inhibition
[13] = isolate DI19-234, MIC at 50% inhibition
[14] = isolate DI19-236, MIC at 50% inhibition
[15] = isolate DI19-237, MIC at 50% inhibition
[16] = isolate DI20-95, MIC at 50% inhibition
[17] = isolate DI20-103, MIC at 50% inhibition
[18] = isolate 99-880, MIC at 50% inhibition
[19] = isolate 99-892, MIC at 50% inhibition
[20] = isolate RA3, MIC at 50% inhibition
[21] = isolate BD1, MIC at 50% inhibition
[22] = isolate BD2, MIC at 50% inhibition
[23] = isolate BD3, MIC at 50% inhibition

SMILES | MIC80 [1] | MIC50 (Aspergillus fumigatus; [5]) | MIC50 (Aspergillus fumigatus; [6]) | MIC50 (Aspergillus fumigatus; [7]) | MIC50 (Aspergillus fumigatus; [8]) | MIC50 (Aspergillus fumigatus; [9]) | MIC50 (Aspergillus fumigatus; [10]) | MIC50 (Aspergillus fumigatus; [11]) | MIC50 (Aspergillus fumigatus; [12]) | MIC50 (Aspergillus fumigatus; [13]) | MIC50 (Aspergillus fumigatus; [14]) | MIC50 (Aspergillus fumigatus; [15]) | MIC50 (Aspergillus fumigatus; [16]) | MIC50 (Aspergillus fumigatus; [17]) | MIC50 (Rhizopus arrhizus; [18]) | MIC50 (Rhizopus arrhizus; [19]) | MIC50 (Rhizopus arrhizus; [20]) | MIC50 (Blastomyces dermatitidis; [21]) | MIC50 (Blastomyces dermatitidis; [22]) | MIC50 (Blastomyces dermatitidis; [23]) | further results
C/N=C(\CCNC(=O)c1cc(NC(=O)c2cc(NC(=O)c3ccc(/C=C/c4ccc(N(C)C)cc4)nc3)cn2C)cn1C)NC [Ia8, 6-((E)-4-(dimethylamino)styryl)-N-(1-methyl-5-((1-methyl-5-(((E)-3-(methylamino)-3-(methylimino)propyl)carbamoyl)-1H-pyrrol-3-yl)carbamoyl)-1H-pyrrol-3-yl)nicotinamide] | 5 to 25 µM (≈ 3.05 to 15.2 µg/mL) | 1 to 8 mg/L (≈ 1.64 to 13.1 µM) | 1 to 8 mg/L (≈ 1.64 to 13.1 µM) | 1 to 8 mg/L (≈ 1.64 to 13.1 µM) | 1 to 8 mg/L (≈ 1.64 to 13.1 µM) | 1 to 8 mg/L (≈ 1.64 to 13.1 µM) | 1 to 8 mg/L (≈ 1.64 to 13.1 µM) | 1 to 8 mg/L (≈ 1.64 to 13.1 µM) | 1 to 8 mg/L (≈ 1.64 to 13.1 µM) | 1 to 8 mg/L (≈ 1.64 to 13.1 µM) | 1 to 8 mg/L (≈ 1.64 to 13.1 µM) | 1 to 8 mg/L (≈ 1.64 to 13.1 µM) | 1 to 8 mg/L (≈ 1.64 to 13.1 µM) | 1 to 8 mg/L (≈ 1.64 to 13.1 µM) | 1 to 8 mg/L (≈ 1.64 to 13.1 µM) | 1 to 8 mg/L (≈ 1.64 to 13.1 µM) | 1 to 8 mg/L (≈ 1.64 to 13.1 µM) | 1 to 8 mg/L (≈ 1.64 to 13.1 µM) | 1 to 8 mg/L (≈ 1.64 to 13.1 µM) | 1 to 8 mg/L (≈ 1.64 to 13.1 µM) | MIC99 [2]: 5 to 25 mg/L (≈ 8.2 to 41 µM); MIC50 (Fusarium solani): ≤ 1 mg/L; MIC50 Fusarium solani (Fusarium solani): *** (*** means MIC50 <= 1 μg/mL)
[H]/N=C(\CCNC(=O)c1cc(NC(=O)c2cc(NC(=O)c3ccc(C=Cc4ccc(N(C)C)cc4)nc3)cn2C)cn1C)NC [Ia9, (E)-6-(4-(dimethylamino)styryl)-N-(5-((5-((3-imino-3-(methylamino)propyl)carbamoyl)-1-methyl-1H-pyrrol-3-yl)carbamoyl)-1-methyl-1H-pyrrol-3-yl)nicotinamide] | 5 to 25 µM (≈ 2.98 to 14.9 µg/mL) | 1 to 8 mg/L (≈ 1.68 to 13.4 µM) | 1 to 8 mg/L (≈ 1.68 to 13.4 µM) | 1 to 8 mg/L (≈ 1.68 to 13.4 µM) | 1 to 8 mg/L (≈ 1.68 to 13.4 µM) | 1 to 8 mg/L (≈ 1.68 to 13.4 µM) | 1 to 8 mg/L (≈ 1.68 to 13.4 µM) | 1 to 8 mg/L (≈ 1.68 to 13.4 µM) | 1 to 8 mg/L (≈ 1.68 to 13.4 µM) | 1 to 8 mg/L (≈ 1.68 to 13.4 µM) | 1 to 8 mg/L (≈ 1.68 to 13.4 µM) | 1 to 8 mg/L (≈ 1.68 to 13.4 µM) | 1 to 8 mg/L (≈ 1.68 to 13.4 µM) | 1 to 8 mg/L (≈ 1.68 to 13.4 µM) | 1 to 8 mg/L (≈ 1.68 to 13.4 µM) | 1 to 8 mg/L (≈ 1.68 to 13.4 µM) | 1 to 8 mg/L (≈ 1.68 to 13.4 µM) | 1 to 8 mg/L (≈ 1.68 to 13.4 µM) | 1 to 8 mg/L (≈ 1.68 to 13.4 µM) | 1 to 8 mg/L (≈ 1.68 to 13.4 µM) | S. aureus Selectivity Indices, Group [1]: C (Group C: 5 < SI <= 10); SARS-CoV-2 Selectivity Indices, Group ([3]; SI, IC50 (μM)/IC50 (μM), HEK293 cytotoxicity, Alkyl Amidines and NH Pyrroles): B (Group B: 4.1 < SI <= 10); IC50 ([3]; Severe acute respiratory syndrome coronavirus 2, Vero C1008, plaque inhibition, Vero-E6 cells, read-out: IC50 SARS-CoV-2): 2 to 8 µM; MIC99 [2]: 5 to 25 mg/L (≈ 8.39 to 42 µM); MIC50 (Fusarium solani): ≤ 1 mg/L; MIC50 Fusarium solani (Fusarium solani): *** (*** means MIC50 <= 1 μg/mL)
C/N=C(/CCNC(=O)c1cc(NC(=O)c2cc(NC(=O)c3ccc(/C=C/c4cnc5ccccc5c4)cc3)cn2C)cn1C)NC [Ia10, 1-methyl-4-(1-methyl-4-(4-((E)-2-(quinolin-3-yl)vinyl)benzamido)-1H-pyrrole-2-carboxamido)-N—((Z)-3-(methylamino)-3-(methylimino)propyl)-1H-pyrrole-2-carboxamide] | < 5 µM | ≤ 1 mg/L | ≤ 1 mg/L | ≤ 1 mg/L | ≤ 1 mg/L | ≤ 1 mg/L | 1 to 8 mg/L (≈ 1.62 to 13 µM) | ≤ 1 mg/L | ≤ 1 mg/L | ≤ 1 mg/L | ≤ 1 mg/L | ≤ 1 mg/L | ≤ 1 mg/L | ≤ 1 mg/L | 1 to 8 mg/L (≈ 1.62 to 13 µM) | 1 to 8 mg/L (≈ 1.62 to 13 µM) | 1 to 8 mg/L (≈ 1.62 to 13 µM) | 1 to 8 mg/L (≈ 1.62 to 13 µM) | 1 to 8 mg/L (≈ 1.62 to 13 µM) | 8 to 32 mg/L (≈ 13 to 51.9 µM) | S. aureus Selectivity Indices, Group [1]: B (Group B: 3 < SI <= 5); Blood conc @ 1 Hr ([4]; 2 mg/kg IV dose in mice, blood, 1 Hr): 0.204 µM; Lung conc @ 1 Hr ([4]; 2 mg/kg IV dose in mice, lung, 1 Hr): 28.968 µM; Accumulation in lung tissue ([4]; 2 mg/kg IV in mice): remarkable accumulation in lung tissue; Tolerability ([4]; 2 mg/kg IV in mice (higher doses were not investigated)): well tolerated; Kp at 1 h ([4]; male, CD-1, mouse, lung vs whole blood, 2 mg/kg IV dose in mice, lung vs blood at 1 Hr, read-out: Lung accumulation factor): ~142; MIC99 [2]: < 5 mg/L; MIC50 (Fusarium solani): ≤ 1 mg/L; MIC50 Fusarium solani (Fusarium solani): *** (*** means MIC50 <= 1 μg/mL)
